Measurements as given in patent publication US20100190199A1, “GPR30 ESTROGEN RECEPTOR IN BREAST AND OVARIAN CANCERS” (Rhode Island Hospital, priority 2008, published 2010).

Key:
alpha and beta ERs = settings: cited from earlier work
GPR30 = target: T1, GPR30 (Homo sapiens, UniProt Q99527); test: Estrogen-mediated fibronectin (FN) matrix assembly by human breast cancer cells; type: cell-based; settings: stimulation of human breast cancer cells
T1 construct: human SKBR3 breast cancer cells (Erα^−, ERβ^−, GPR30^+); endogenous in cells
T1 sequence (Q99527 whole entry): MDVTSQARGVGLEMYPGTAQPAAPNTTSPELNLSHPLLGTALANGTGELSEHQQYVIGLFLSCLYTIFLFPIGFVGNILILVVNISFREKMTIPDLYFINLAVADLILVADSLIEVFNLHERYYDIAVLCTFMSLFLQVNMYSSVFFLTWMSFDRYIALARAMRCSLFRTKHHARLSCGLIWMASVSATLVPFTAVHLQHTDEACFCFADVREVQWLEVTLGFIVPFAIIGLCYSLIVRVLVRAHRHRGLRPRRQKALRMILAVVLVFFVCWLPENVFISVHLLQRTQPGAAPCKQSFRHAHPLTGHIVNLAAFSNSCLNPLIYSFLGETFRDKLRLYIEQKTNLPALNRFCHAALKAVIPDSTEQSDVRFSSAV

EGFR = settings: breast cancer cells; behave similarly to estradiol; cited from earlier work
ER+ ovarian cancer = settings: ovarian cancer patients, second-line therapy, Phase II; cited from earlier work

SMILES | Binding preference ERα versus ERβ (alpha and beta ERs) | EGFR activation (EGFR) | other results
C[C@]12CC[C@@H]3c4ccc(O)cc4CC[C@H]3[C@@H]1CC[C@@H]2O [17β-estradiol] | binds equally well to both receptors | – | –
C[C@]12CC[C@@H]3c4ccc(O)cc4C[C@@H](CCCCCCCCC[S+]([O-])CCCC(F)(F)C(F)(F)F)[C@H]3[C@@H]1CC[C@@H]2O (stereo partly drawn) [ICI 182,780] | – | capable of triggering EGFR activation in breast cancer cells | FN matrix assembly: recruitment of FN-engaged integrin α5β1 conformers to fibrillar adhesions and synthesis of FN fibrils (GPR30): resulted in the recruitment of FN-engaged integrin α5β1 conformers to fibrillar adhesions and the synthesis of FN fibrils
N#Cc1ccc(C(c2ccc(C#N)cc2)n2cncn2)cc1 [Letrozole] | – | – | Clinical response measured by ovarian cancer serum marker CA-125 (ER+ ovarian cancer): stable disease
O=C(c1ccc(OCCN2CCCCC2)cc1)c1c(-c2ccc(O)cc2)sc2cc(O)ccc12 [raloxifene] | bind preferentially to the alpha receptor | – | –
CC/C(=C(\c1ccccc1)c1ccc(OCCN(C)C)cc1)c1ccccc1 [tamoxifen] | – | capable of triggering EGFR activation in breast cancer cells | –
